Legend:
SK-MEL-28 [1] = test: Dopaquinone content determination (OD475) in SK-MEL cells; type: cell-based, human
Description: In vitro determinations were performed following the method devised by Dooley et al. (Skin Pharmacol. 1994; 7:188-200) in order to evaluate the capacity of idebenone to inhibit melanogenesis, according to the process described below:
Cells: The study was carried out using a cell line derived from human melanoma, provided by ABAC (Asociación Banco Argentino de Células—Cell Bank of Argentina), with melanin synthesis capability (SK-MEL-28, ATCC origin). The cells were grown in plastic culture bottles or in 24-well plastic dishes in a modified Eagle medium (DMEM) supplemented with 10% fetal bovine serum (FBS) and were maintained at 37° C. in a 5% CO2 atmosphere.
Study of in vitro compounds: SK-MEL cells detached with trypsin were seeded on plastic 24-well dishes (density of 1×10^5 cells per well) and incubated for 24 hours in modified Eagle medium (DMEM) supplemented with 10% fetal bovine serum (FBS) prior to treating with the compound to be evaluated. After 24 hours have lapsed, the medium was replaced with 990 μl of fresh medium. 10 μl of sterile vehicle (50% propylene glycol, 30% ethanol and 20% distilled water) containing different concentrations of the compounds to be evaluated were added to this fresh medium.
Decimal dilutions of each compound in the sterile vehicle were prepared in order to obtain final concentrations of the compound to be studied ranging between 1.000 and 0.01 μg/ml. […]
[…] […] All the concentrations of the compounds were studied in triplicate, comparing the mean of the 3 wells treated with the compounds with those treated with the vehicle alone.
Melanin content determination: The SK-MEL cell melanin content was determined after stirring the culture medium and washing the cells with PBS. The cells were then lysated by means of adding 1 ml of 1N NaOH to each well and repeated manual pipetting. The raw cell extract was analyzed using a spectrophotometer at 400 and 475 nm to determine the melanin and dopaquinone content, respectively. The results were expressed as a percentage of the cell cultures treated with the vehicle.

SK-MEL-28 [2] = test: Cytopathic effects on cell cultures, inverted microscope; type: cell-based, human
Description: An experiment similar to the one described in the previous example was designed for the purpose of establishing whether idebenone inhibits melanogenesis in cells in culture, but in this case the cells were treated for only 1 day, whereas the results were evaluated on the third day.
An experiment similar to the one described in the previous example was designed for the purpose of establishing whether idebenone inhibits melanogenesis in cells in culture, but in this case the cells were treated for 2 days and the results were evaluated on the fourth day.
An experiment similar to the one described in the previous example was designed for the purpose of establishing whether idebenone inhibits melanogenesis in cells in culture, but in this case the cells were treated for 5 days and the results were evaluated on the fifth day.

[3] = Arzneim. Forsch/drug res. 35 (II), 11, pp. 1704, 1985; cited from earlier work
skin of nude adult mice = test: Dermal capillary vessel diameters, mouse skin; type: in vivo; details: topically applied
Description: Creams containing 5% and 2.5% w/w idebenone (IDB) in a neutral phase were prepared. Said creams and a cream having an identical formulation but without idebenone were applied on nude adult mice with 3 months of age. The cream with idebenone was applied on the right half of the body of the animals and the control cream on the left half according to the scheme detailed below. The animals were sacrificed 1, 2, 3 or 4 hours after applying the cream (p.a.). • Batch A: animal treated with 5% IDB (1 hour p.a.) • Batch B: animal treated with 2.5% IDB (1 hour p.a.) • Batch C: animal treated with 5% IDB (2 hours p.a.) • Batch D: animal treated with 2.5% IDB (2 hours p.a.) • Batch E: animal treated with 5% IDB (3 hours p.a.) • Batch F: animal treated with 2.5% IDB (3 hours p.a.) • Batch G: animal treated with 5% IDB (4 hours p.a.) • Batch H: animal treated with 2.5% IDB (4 hours p.a.)
Morphological and morphometric studies: Thickness of the epidermis, the horny layer, the papillary dermis and reticular dermis was measured in at least 10 different points, the result being expressed as the average of the 10 measurements. Capillary vessel diameter was also measured in at least 10 points, expressing them by means of their average. The measurements were carried out using a Quantimet 500+ (Leica) image processing equipment. […]

[4] = Example 9 (similar to Example 6), dilution −2
[5] = Example 9 (similar to Example 6), dilution −3
[6] = Example 9 (similar to Example 6), dilution −4
[7] = Example 9 (similar to Example 6), dilution −5
[8] = Example 9 (similar to Example 6), dilution −6
[9] = Example 9 (similar to Example 6), dilution −7
[10] = Example 9 (similar to Example 6), dilution −8
[11] = dilution −1, treated daily 3 days, assayed day 5
[12] = dilution −2, treated 1 day, evaluated third day
[13] = dilution −2, treated daily 3 days, assayed day 5
[14] = dilution −3, treated 1 day, evaluated third day
[15] = dilution −3, treated daily 3 days, assayed day 5
[16] = dilution −4, treated 1 day, evaluated third day
[17] = dilution −4, treated 2 days, evaluated fourth day
[18] = dilution −4, treated daily 3 days, assayed day 5
[19] = dilution −4, treated for 5 days (heading: 3 days), evaluated fifth day
[20] = dilution −5, treated 1 day, evaluated third day
[21] = dilution −5, treated 2 days, evaluated fourth day
[22] = dilution −5, treated daily 3 days, assayed day 5
[23] = dilution −5, treated for 5 days (heading: 3 days), evaluated fifth day
[24] = dilution −6, treated 1 day, evaluated third day
[25] = dilution −6, treated 2 days, evaluated fourth day
[26] = dilution −6, treated for 5 days (heading: 3 days), evaluated fifth day

Cytopathic effects (SK-MEL-28 [2]; remaining dilutions (−2 to −6), treated 1 day): no cytopathic effect whatsoever | Cytopathic effects (SK-MEL-28 [2]; −1 dilution, treated 1 day): cytopathic effects | Cytopathic effects (SK-MEL-28 [2]; −4, −5 and −6 dilutions, Example 8): No cytopathic effect was observed | Cytopathic effects (SK-MEL-28 [2]; −4, −5 and −6 dilutions, treated 2 days): No cytopathic effect was observed
SMILES: COC1=C(OC)C(=O)C(CCCCCCCCCCO)=C(C)C1=O [idebenone, 6-(10-hydroxydecyl)-2,3-dimethoxy-5-methyl-1,4-benzoquinone]
OD475 (dopaquinone) (SK-MEL-28 [1]; [4]): 0.0024 | OD475 Percentage (dopaquinone) (SK-MEL-28 [1]; [4]): 14.45% | OD475 (dopaquinone) (SK-MEL-28 [1]; [5]): 0.0038 | OD475 Percentage (dopaquinone) (SK-MEL-28 [1]; [5]): 22.89% | OD475 (dopaquinone) (SK-MEL-28 [1]; [6]): 0.0133 | OD475 Percentage (dopaquinone) (SK-MEL-28 [1]; [6]): 80.12% | OD475 (dopaquinone) (SK-MEL-28 [1]; [7]): 0.0139 | OD475 Percentage (dopaquinone) (SK-MEL-28 [1]; [7]): 83.73% | OD475 (dopaquinone) (SK-MEL-28 [1]; [8]): 0.0116 | OD475 Percentage (dopaquinone) (SK-MEL-28 [1]; [8]): 69.87% | OD475 (dopaquinone) (SK-MEL-28 [1]; [9]): 0.0139 | OD475 Percentage (dopaquinone) (SK-MEL-28 [1]; [9]): 83.73% | OD475 (dopaquinone) (SK-MEL-28 [1]; [10]): 0.0133 | OD475 Percentage (dopaquinone) (SK-MEL-28 [1]; [10]): 80.12% | OD475 (dopaquinone) (SK-MEL-28 [1]; [11]): 0.0011 | OD475 expressed as percentage of control (dopaquinone) (SK-MEL-28 [1]; [11]): 9% | OD475 (dopaquinone) (SK-MEL-28 [1]; [12]): 0.0030 | OD475 Percentage (dopaquinone) (SK-MEL-28 [1]; [12]): 18.75% | OD475 (dopaquinone) (SK-MEL-28 [1]; [13]): 0.0016 | OD475 expressed as percentage of control (dopaquinone) (SK-MEL-28 [1]; [13]): 14% | OD475 (dopaquinone) (SK-MEL-28 [1]; [14]): 0.0050 | OD475 Percentage (dopaquinone) (SK-MEL-28 [1]; [14]): 31.25% | OD475 (dopaquinone) (SK-MEL-28 [1]; [15]): 0.0043 | OD475 expressed as percentage of control (dopaquinone) (SK-MEL-28 [1]; [15]): 37% | OD475 (dopaquinone) (SK-MEL-28 [1]; [16]): 0.0123 | OD475 Percentage (dopaquinone) (SK-MEL-28 [1]; [16]): 76.87% | OD475 (dopaquinone) (SK-MEL-28 [1]; [17]): 0.0400 | OD475 Percentage (dopaquinone) (SK-MEL-28 [1]; [17]): 103.62% | OD475 (dopaquinone) (SK-MEL-28 [1]; [18]): 0.0053 | OD475 expressed as percentage of control (dopaquinone) (SK-MEL-28 [1]; [18]): 46% | OD475 (dopaquinone) (SK-MEL-28 [1]; [19]): 0.0513 | OD475 Percentage (dopaquinone) (SK-MEL-28 [1]; [19]): 80.66% | OD475 (dopaquinone) (SK-MEL-28 [1]; [20]): 0.0196 | OD475 Percentage (dopaquinone) (SK-MEL-28 [1]; [20]): 122.5% | OD475 (dopaquinone) (SK-MEL-28 [1]; [21]): 0.0406 | OD475 Percentage (dopaquinone) (SK-MEL-28 [1]; [21]): 105.18% | OD475 (dopaquinone) (SK-MEL-28 [1]; [22]): 0.0040 | OD475 expressed as percentage of control (dopaquinone) (SK-MEL-28 [1]; [22]): 35% | OD475 (dopaquinone) (SK-MEL-28 [1]; [23]): 0.0612 | OD475 Percentage (dopaquinone) (SK-MEL-28 [1]; [23]): 96.22% | OD475 (dopaquinone) (SK-MEL-28 [1]; [24]): 0.0200 | OD475 Percentage (dopaquinone) (SK-MEL-28 [1]; [24]): 125.0% | OD475 (dopaquinone) (SK-MEL-28 [1]; [25]): 0.0273 | OD475 Percentage (dopaquinone) (SK-MEL-28 [1]; [25]): 70.72% | OD475 (dopaquinone) (SK-MEL-28 [1]; [26]): 0.0643 | OD475 Percentage (dopaquinone) (SK-MEL-28 [1]; [26]): 101.10% | Toxic effects reported [3]: no significant toxic effects have been reported | Effect on microcirculation vascular diameters (skin of nude adult mice): does not substantially modify microcirculation vascular diameters

— patent publication US20090060851A1, “USE OF IDEBENONE FOR THE PREPARATION OF A TOPICALLY-APPLIED DEPIGMENTATION COMPOSITION AND CORRESPONDING COMPOSITION” (priority 2005, published 2009)
